According to patent US6987004B1, “Genes integrating signal transduction pathways” (Massachusetts Institute of Technology, priority 1998, dated 2006):

Legend:
Format in all cases: cell-based
Rap1A = assay: GTP-bound Rap1A in 293T cells in the absence of cAMP-GEFs; conditions: treatment alone
Source text: (§1) Forskolin/IBMX treatment given alone had no effect.
cAMP-dependent activation of Rap1 has previously been ascribed to the phosphorylation of Rap1A by PKA, which raises its affinity to smgGDS, a GEF with broad substrate specificity. […] The activation of Rap1A induced by cAMP-GEFI and II is independent of the PKA pathway.

cAMP-GEFI = target: T1, cAMP-GEFI (Rattus norvegicus, UniProt Q9Z1C8); assay: Ratio of GTP to GDP bound to Rap1A in 293T cells expressing cAMP-GEFI; design: expressed in transfected cells; host or cells: 293T cells
T1 sequence (Q9Z1C8 43-926 limits assumed): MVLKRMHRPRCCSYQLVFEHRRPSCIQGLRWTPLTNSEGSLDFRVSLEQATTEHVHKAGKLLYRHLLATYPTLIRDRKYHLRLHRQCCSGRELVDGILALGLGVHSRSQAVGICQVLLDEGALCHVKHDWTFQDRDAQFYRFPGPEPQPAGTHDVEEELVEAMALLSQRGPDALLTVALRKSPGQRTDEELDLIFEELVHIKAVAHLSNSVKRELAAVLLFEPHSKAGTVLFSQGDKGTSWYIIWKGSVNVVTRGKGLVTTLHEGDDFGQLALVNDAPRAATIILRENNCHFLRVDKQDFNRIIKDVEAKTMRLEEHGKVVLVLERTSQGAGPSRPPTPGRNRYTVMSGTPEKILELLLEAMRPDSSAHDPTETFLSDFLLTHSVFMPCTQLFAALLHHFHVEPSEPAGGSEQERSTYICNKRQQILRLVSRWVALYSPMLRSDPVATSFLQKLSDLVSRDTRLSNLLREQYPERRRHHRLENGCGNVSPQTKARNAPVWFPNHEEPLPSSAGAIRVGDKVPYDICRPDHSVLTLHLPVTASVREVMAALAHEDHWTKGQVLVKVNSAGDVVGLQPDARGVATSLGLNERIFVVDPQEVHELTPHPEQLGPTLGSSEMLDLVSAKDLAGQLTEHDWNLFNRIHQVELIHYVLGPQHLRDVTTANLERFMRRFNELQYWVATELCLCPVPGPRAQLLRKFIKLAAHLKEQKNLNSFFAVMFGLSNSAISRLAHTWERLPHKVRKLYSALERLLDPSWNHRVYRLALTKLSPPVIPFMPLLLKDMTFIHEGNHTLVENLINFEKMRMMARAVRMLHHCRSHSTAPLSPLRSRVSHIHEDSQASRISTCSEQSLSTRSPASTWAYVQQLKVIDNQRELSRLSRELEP
Description: (§2) To determine the effect of CalDAG-GEFI on the Erk/MAP kinase cascade, Elk1 activation was measured in 293T cells transfected with CalDAG-GEFI or constitutively active H-Ras (RasV12), or both. 293T cells were transfected by SuperFect (Qiagen) as described in Gotoh, supra, with expression vectors for GST-tagged Ras family proteins and with those for various GEFs. Cells were labeled 24 hours after transfection with ^32Pi for 2 hr. In some experiments, cells were stimulated with either 10 μM A23187 or 1 μM phorbol-12-myristate-13-acetate (TPA) for 3 min. GST-tagged Ras family proteins were collected from cell lysates with glutathione Sepharose. Guanine nucleotides bound to Ras family proteins were separated by thin layer chromatography (TLC). Activation of Elk1 was examined by the PathDetect Elk1 transreporting system (Stratagene). 293T cells were transfected with pFR-Luc and pFA-Elk1 with various expression vectors, and light output was detected and analyzed by the use of LAS1000 film.
as §1
Thus, cAMP-GEFI has a direct effect on Rap1A rather than secondary effects mediated by other Ras-superfamily GEFs.

cAMP-GEFII = target: T2, cAMP-GEFII (Homo sapiens, UniProt Q8WZA2); assay: Ratio of GTP to GDP bound to Rap1A in 293T cells expressing cAMP-GEFII
T2 construct: expressed in transfected cells; host or cells: 293T cells
Description: as §2, §1

T2 sequence (Q8WZA2 whole entry): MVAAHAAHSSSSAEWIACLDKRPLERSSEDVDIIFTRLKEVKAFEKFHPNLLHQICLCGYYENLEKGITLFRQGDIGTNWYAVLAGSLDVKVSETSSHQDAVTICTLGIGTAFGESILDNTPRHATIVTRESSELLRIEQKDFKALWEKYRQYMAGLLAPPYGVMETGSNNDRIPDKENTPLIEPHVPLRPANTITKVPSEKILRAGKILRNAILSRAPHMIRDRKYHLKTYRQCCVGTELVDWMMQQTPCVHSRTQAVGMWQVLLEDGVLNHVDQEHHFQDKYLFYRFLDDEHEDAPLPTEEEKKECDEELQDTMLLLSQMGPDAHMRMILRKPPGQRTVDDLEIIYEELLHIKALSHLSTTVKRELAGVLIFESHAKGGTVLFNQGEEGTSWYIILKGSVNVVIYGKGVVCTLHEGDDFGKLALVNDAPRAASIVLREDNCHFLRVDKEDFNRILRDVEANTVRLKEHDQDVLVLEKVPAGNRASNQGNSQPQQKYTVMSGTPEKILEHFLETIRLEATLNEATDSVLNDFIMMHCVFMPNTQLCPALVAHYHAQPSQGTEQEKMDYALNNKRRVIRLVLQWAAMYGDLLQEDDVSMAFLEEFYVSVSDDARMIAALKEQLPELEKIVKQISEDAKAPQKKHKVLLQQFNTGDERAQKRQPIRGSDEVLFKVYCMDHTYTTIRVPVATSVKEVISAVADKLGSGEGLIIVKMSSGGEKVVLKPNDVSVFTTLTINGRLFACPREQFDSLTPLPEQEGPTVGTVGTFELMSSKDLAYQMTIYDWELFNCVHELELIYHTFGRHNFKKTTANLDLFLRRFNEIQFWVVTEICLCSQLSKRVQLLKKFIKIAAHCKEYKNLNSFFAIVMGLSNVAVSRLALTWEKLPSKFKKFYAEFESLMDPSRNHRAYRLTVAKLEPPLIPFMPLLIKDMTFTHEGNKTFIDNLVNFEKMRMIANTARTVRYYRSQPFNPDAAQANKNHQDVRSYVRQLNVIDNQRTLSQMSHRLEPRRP

Row | SMILES | Increase of GTP-bound Rap1A without cAMP-GEF (Rap1A) | Activation of Rap1A (cAMP-GEFI; cAMP-GEFI transfectants) | Rap1A activation by cAMP-GEFII in the presence of the PKA inhibitor (cAMP-GEFII) | Rap1A activation by cAMP-GEFI in the presence of the PKA inhibitor (cAMP-GEFI; 293T cells)
1 | Nc1ncnc2c1ncn2[C@@H]1O[C@@H]2COP(O)(=S)O[C@H]2[C@H]1O (stereo partly shown) [Sp-cAMPS] | not detected | activated Rap1A at levels similar to those induced by forskolin/IBMX |  | 
2 | O=S(=O)(NCCNC/C=C/c1ccc(Br)cc1)c1cccc2cnccc12 [H-89] |  |  | could still activate Rap1A | could still activate Rap1A
